Data published in PubChem BioAssay (NCI).
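Compound exposure: 48 hours, 5 concentrations, 96-well plates. TGI: concentration producing complete growth inhibition.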

Columns and labels:
Experiment in all cases: NCI tumour cell line growth inhibition, 48 h
SK-MEL-28 melanoma = system: SK-MEL-28 melanoma
RXF 393 renal = system: RXF 393 renal
TK-10 renal = system: TK-10 renal
UACC-257 melanoma = system: UACC-257 melanoma
IGROV1 ovarian = system: IGROV1 ovarian
SN12C renal = system: SN12C renal
M19-MEL melanoma = system: M19-MEL melanoma
HCT-15 colon = system: HCT-15 colon
LOX IMVI melanoma = system: LOX IMVI melanoma
OVCAR-8 ovarian = system: OVCAR-8 ovarian
HCC-2998 colon = system: HCC-2998 colon
HCT-116 colon = system: HCT-116 colon
A549 NSCLC = system: A549 NSCLC
OVCAR-4 ovarian = system: OVCAR-4 ovarian
DMS 114 small cell lung = system: DMS 114 small cell lung
CAKI-1 renal = system: CAKI-1 renal
HOP-18 NSCLC = system: HOP-18 NSCLC
SF-295 CNS = system: SF-295 CNS
SNB-75 CNS = system: SNB-75 CNS
NCI-H522 lung = system: NCI-H522 lung
HT29 colon = system: HT29 colon
K-562 leukemia = system: K-562 leukemia
RPMI-8226 leukemia = system: RPMI-8226 leukemia
DMS 273 small cell lung = system: DMS 273 small cell lung
A498 renal = system: A498 renal
CCRF-CEM leukemia = system: CCRF-CEM leukemia
OVCAR-3 ovarian = system: OVCAR-3 ovarian
EKVX NSCLC = system: EKVX NSCLC
NCI-H226 lung = system: NCI-H226 lung
SW-620 colon = system: SW-620 colon
SK-MEL-2 melanoma = system: SK-MEL-2 melanoma
SK-MEL-5 melanoma = system: SK-MEL-5 melanoma
HOP-92 NSCLC = system: HOP-92 NSCLC
SNB-78 CNS = system: SNB-78 CNS
HOP-62 NSCLC = system: HOP-62 NSCLC
KM20L2 colon = system: KM20L2 colon
M14 melanoma = system: M14 melanoma
SF-268 CNS = system: SF-268 CNS
NCI-H460 lung = system: NCI-H460 lung
MALME-3M melanoma = system: MALME-3M melanoma
ACHN renal = system: ACHN renal
SF-539 CNS = system: SF-539 CNS
SNB-19 CNS = system: SNB-19 CNS
MOLT-4 leukemia = system: MOLT-4 leukemia
DLD-1 colon = system: DLD-1 colon
RXF-631 renal = system: RXF-631 renal
NCI-H23 lung = system: NCI-H23 lung
XF 498 CNS = system: XF 498 CNS
SR leukemia = system: SR leukemia
OVCAR-5 ovarian = system: OVCAR-5 ovarian
LXFL 529 NSCLC = system: LXFL 529 NSCLC
COLO 205 colon = system: COLO 205 colon
U251 CNS = system: U251 CNS
KM12 colon = system: KM12 colon
HL-60(TB) leukemia = system: HL-60(TB) leukemia
786-0 renal = system: 786-0 renal
UO-31 renal = system: UO-31 renal
UACC-62 melanoma = system: UACC-62 melanoma
SK-OV-3 ovarian = system: SK-OV-3 ovarian
NCI/ADR-RES ovarian = system: NCI/ADR-RES ovarian
P388/ADR leukemia = system: P388/ADR leukemia
MCF7 breast = system: MCF7 breast
SN12K1 renal = system: SN12K1 renal
P388 leukemia = system: P388 leukemia

COc1ccc(/C=C2\CCC(CCN(C)C)(C3=CCCC3)C2=O)cc1Br (configuration not stated)
TGI (SK-MEL-28 melanoma): 7.7 µM
TGI (RXF 393 renal): 6.99 µM
TGI (TK-10 renal): 20 µM
TGI (UACC-257 melanoma): 5.5 µM
TGI (IGROV1 ovarian): 14.7 µM
TGI (SN12C renal): 22 µM
TGI (M19-MEL melanoma): 7.86 µM
TGI (HCT-15 colon): 15.5 µM
TGI (LOX IMVI melanoma): 15.4 µM
TGI (OVCAR-8 ovarian): 21.9 µM
TGI (HCC-2998 colon): 4.71 µM
TGI (HCT-116 colon): 17.1 µM
TGI (A549 NSCLC): 24 µM
TGI (OVCAR-4 ovarian): 14.5 µM
TGI (DMS 114 small cell lung): 14.9 µM
TGI (CAKI-1 renal): 21.2 µM
TGI (HOP-18 NSCLC): 25.2 µM
TGI (SF-295 CNS): 13.7 µM
TGI (SNB-75 CNS): 17.5 µM
TGI (NCI-H522 lung): 3.98 µM
TGI (HT29 colon): 7.14 µM
TGI (K-562 leukemia): 5.23 µM
TGI (RPMI-8226 leukemia): 5.5 µM
TGI (DMS 273 small cell lung): 14.6 µM
TGI (A498 renal): 23.5 µM
TGI (CCRF-CEM leukemia): 5.74 µM
TGI (OVCAR-3 ovarian): 19.3 µM
TGI (EKVX NSCLC): 8.62 µM
TGI (NCI-H226 lung): 31.4 µM
TGI (SW-620 colon): 20.3 µM
TGI (SK-MEL-2 melanoma): 22.2 µM
TGI (SK-MEL-5 melanoma): 3.15 µM
TGI (HOP-92 NSCLC): 11.3 µM
TGI (SNB-78 CNS): 30.4 µM
TGI (HOP-62 NSCLC): 30.9 µM
TGI (KM20L2 colon): 3.56 µM
TGI (M14 melanoma): 3.34 µM
TGI (SF-268 CNS): 23 µM
TGI (NCI-H460 lung): 25.6 µM
TGI (MALME-3M melanoma): 28 µM
TGI (ACHN renal): 21.5 µM
TGI (SF-539 CNS): 25.7 µM
TGI (SNB-19 CNS): 22.1 µM
TGI (MOLT-4 leukemia): 6.01 µM
TGI (DLD-1 colon): 16.4 µM
TGI (RXF-631 renal): 31.1 µM
TGI (NCI-H23 lung): 29 µM
TGI (XF 498 CNS): 8.72 µM
TGI (SR leukemia): 5.06 µM
TGI (OVCAR-5 ovarian): 27.1 µM
TGI (LXFL 529 NSCLC): 15.8 µM
TGI (COLO 205 colon): 3.01 µM
TGI (U251 CNS): 19 µM
TGI (KM12 colon): 14.9 µM
TGI (HL-60(TB) leukemia): 4.63 µM
TGI (786-0 renal): 14.3 µM
TGI (UO-31 renal): 17.6 µM

Cc1ccc(C(=O)/C=C/c2cccc([N+](=O)[O-])c2)cc1
TGI (SK-MEL-28 melanoma): > 100 µM
TGI (RXF 393 renal): > 74.8 µM
TGI (TK-10 renal): > 100 µM
TGI (UACC-257 melanoma): > 100 µM
TGI (IGROV1 ovarian): > 100 µM
TGI (SN12C renal): > 100 µM
TGI (M19-MEL melanoma): > 62.3 µM
TGI (HCT-15 colon): > 64 µM
TGI (LOX IMVI melanoma): > 100 µM
TGI (OVCAR-8 ovarian): > 100 µM
TGI (HCC-2998 colon): > 92 µM
TGI (HCT-116 colon): 31.8 µM
TGI (A549 NSCLC): > 100 µM
TGI (OVCAR-4 ovarian): > 100 µM
TGI (DMS 114 small cell lung): > 80.9 µM
TGI (CAKI-1 renal): > 100 µM
TGI (HOP-18 NSCLC): > 100 µM
TGI (SF-295 CNS): > 100 µM
TGI (SNB-75 CNS): > 92.9 µM
TGI (NCI-H522 lung): > 100 µM
TGI (HT29 colon): > 66.1 µM
TGI (K-562 leukemia): 66.5 µM
TGI (RPMI-8226 leukemia): > 78.8 µM
TGI (DMS 273 small cell lung): > 100 µM
TGI (A498 renal): > 100 µM
TGI (CCRF-CEM leukemia): > 89.9 µM
TGI (OVCAR-3 ovarian): > 100 µM
TGI (EKVX NSCLC): > 100 µM
TGI (NCI-H226 lung): > 100 µM
TGI (SW-620 colon): 43.7 µM
TGI (SK-MEL-2 melanoma): > 100 µM
TGI (SK-MEL-5 melanoma): > 100 µM
TGI (HOP-92 NSCLC): > 100 µM
TGI (SNB-78 CNS): > 100 µM
TGI (HOP-62 NSCLC): > 100 µM
TGI (KM20L2 colon): > 100 µM
TGI (M14 melanoma): > 100 µM
TGI (SF-268 CNS): > 100 µM
TGI (NCI-H460 lung): > 100 µM
TGI (MALME-3M melanoma): > 100 µM
TGI (ACHN renal): > 100 µM
TGI (SF-539 CNS): > 100 µM
TGI (SNB-19 CNS): > 100 µM
TGI (MOLT-4 leukemia): 7.39 µM
TGI (DLD-1 colon): > 85.8 µM
TGI (RXF-631 renal): > 100 µM
TGI (UACC-62 melanoma): > 100 µM
TGI (NCI-H23 lung): > 100 µM
TGI (SR leukemia): 51.1 µM
TGI (LXFL 529 NSCLC): > 100 µM
TGI (COLO 205 colon): > 55.9 µM
TGI (SK-OV-3 ovarian): > 100 µM
TGI (U251 CNS): > 55.5 µM
TGI (KM12 colon): > 62.1 µM
TGI (HL-60(TB) leukemia): > 85.8 µM
TGI (786-0 renal): > 62.9 µM
TGI (UO-31 renal): > 100 µM

Cc1ccc(C2COc3cc(O)c(O)cc3C2)cc1 (configuration not stated)
TGI (SK-MEL-28 melanoma): 32.8 µM
TGI (RXF 393 renal): 26.2 µM
TGI (UACC-257 melanoma): 69.6 µM
TGI (IGROV1 ovarian): 38.5 µM
TGI (SN12C renal): 103 µM
TGI (M19-MEL melanoma): 66.1 µM
TGI (HCT-15 colon): 31.8 µM
TGI (NCI/ADR-RES ovarian): 40.8 µM
TGI (OVCAR-8 ovarian): 44.7 µM
TGI (HCC-2998 colon): 172 µM
TGI (HCT-116 colon): 23.7 µM
TGI (P388/ADR leukemia): 750 µM
TGI (A549 NSCLC): 192 µM
TGI (OVCAR-4 ovarian): 62 µM
TGI (DMS 114 small cell lung): 37 µM
TGI (CAKI-1 renal): 38.1 µM
TGI (MCF7 breast): 114 µM
TGI (HOP-18 NSCLC): 98.2 µM
TGI (SF-295 CNS): 134 µM
TGI (SNB-75 CNS): 126 µM
TGI (HT29 colon): 149 µM
TGI (K-562 leukemia): 42.8 µM
TGI (RPMI-8226 leukemia): 37.9 µM
TGI (DMS 273 small cell lung): 78.1 µM
TGI (A498 renal): 130 µM
TGI (CCRF-CEM leukemia): 12.3 µM
TGI (OVCAR-3 ovarian): 23.1 µM
TGI (EKVX NSCLC): 59.8 µM
TGI (SN12K1 renal): 75 µM
TGI (NCI-H226 lung): 235 µM
TGI (SW-620 colon): 34.5 µM
TGI (SK-MEL-2 melanoma): 57.3 µM
TGI (SK-MEL-5 melanoma): 105 µM
TGI (SNB-78 CNS): 221 µM
TGI (HOP-62 NSCLC): 266 µM
TGI (KM20L2 colon): 164 µM
TGI (SF-268 CNS): 49.3 µM
TGI (NCI-H460 lung): 236 µM
TGI (MALME-3M melanoma): 48.9 µM
TGI (SF-539 CNS): 68.4 µM
TGI (SNB-19 CNS): 251 µM
TGI (MOLT-4 leukemia): 18.6 µM
TGI (DLD-1 colon): 105 µM
TGI (UACC-62 melanoma): 77.2 µM
TGI (NCI-H23 lung): 65.6 µM
TGI (P388 leukemia): 750 µM
TGI (OVCAR-5 ovarian): 244 µM
TGI (COLO 205 colon): 26.2 µM
TGI (SK-OV-3 ovarian): 275 µM
TGI (U251 CNS): 94.3 µM
TGI (KM12 colon): 127 µM
TGI (HL-60(TB) leukemia): 8.27 µM
TGI (UO-31 renal): 101 µM
